Key:
[1] = molecular target: T1, human MET kinase del Ex14 (Homo sapiens, UniProt P08581, DEL963-1009); assay: c-Met Enzyme Assay, del Ex14 mutant; format: binding; conditions: averaged IC50; del Ex14 5 nM; 60-minute incubation at 22° C.; read-out: Del14 IC50
T1 construct: GST-tagged recombinant human MET kinase domain; purchased Signal Chem
Protocol: (§1) The affinity of compound binding to wild type and mutant human MET kinases was measured using Invitrogen's LanthaScreen™ Eu Kinase Binding technology. Briefly, GST-tagged recombinant human MET kinase domain from Signal Chem (see Table 8 below for concentration in assay) was incubated with 50 nM Alexa-Fluor® Tracer 236 (Invitrogen Cat No. PR9078A) and 2 nM Europium-anti-GST (Invitrogen Cat. No. A15116) along with test compound in a buffer consisting of 25 mM HEPES, pH 7.4, 10 mM MgCl2, 0.01% Triton X-100, 1mM DTT, and 2% DMSO. Compounds were typically prepared in a three-fold serial dilution in DMSO and added to the assay to give the appropriate final concentration. After a 60-minute incubation at 22° C., the reaction was measured using a PerkinElmer EnVision multimode plate reader via TR-FRET dual wavelength detection, and the percent of control (POC) calculated using a ratiometric emission factor. […] The POC values were fit to a 4 parameter logistic curve and the IC50 value is point where the curve crosses 50 POC.

human MET kinase D1228N = molecular target: T2, human MET kinase D1228N (Homo sapiens, UniProt P08581, D1228N); assay: c-Met Enzyme Assay, D1228N mutant; format: binding; conditions: averaged IC50; D1228N 2 nM; 60-minute incubation at 22° C.; read-out: D1228 N IC50
T2 construct: GST-tagged recombinant human MET kinase domain; purchased Signal Chem
Protocol: as §1

[2] = molecular target: T3, His-tagged recombinant human AXL cytoplasmic domain (Homo sapiens, UniProt P30530); assay: AXL Enzyme Assay (LanthaScreen Eu Kinase Binding); conditions: averaged IC50; 60-minute incubation at 22° C.; TR-FRET
T3 construct: His-tagged recombinant human AXL cytoplasmic domain
T3 sequence (P30530 473-894 limits assumed): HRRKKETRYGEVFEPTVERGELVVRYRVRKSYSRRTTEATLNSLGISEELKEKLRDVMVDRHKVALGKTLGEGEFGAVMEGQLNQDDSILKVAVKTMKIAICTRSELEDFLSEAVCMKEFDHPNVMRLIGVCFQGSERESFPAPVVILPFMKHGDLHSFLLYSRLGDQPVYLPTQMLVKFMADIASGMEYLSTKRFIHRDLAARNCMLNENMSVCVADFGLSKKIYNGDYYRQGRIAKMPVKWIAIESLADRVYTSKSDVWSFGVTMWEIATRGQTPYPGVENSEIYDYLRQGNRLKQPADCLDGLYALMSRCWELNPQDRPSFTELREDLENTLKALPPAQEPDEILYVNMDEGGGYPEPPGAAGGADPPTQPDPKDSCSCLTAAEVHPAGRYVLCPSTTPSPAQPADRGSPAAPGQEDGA
Protocol: Compounds disclosed herein were screened for their ability to inhibit AXL kinase using Invitrogen's LanthaScreen™Eu Kinase Binding technology. His-tagged recombinant human AXL cytoplasmic domain was incubated with 20 nM Alexa-Fluor® Tracer 236 (PR9078A), 2 nM biotinylated anti-His (Cat. No. M4408), and 2 nM europium-labeled Streptavidin (Cat. No. PV5899) along with test compound in a buffer consisting of 25 mM HEPES, pH 7.4, 10 mM MgCl2, 0.01% Triton X-100, and 2% DMSO. Compounds were typically prepared in a threefold serial dilution in DMSO and added to the assay to give the appropriate final concentration. After a 60-minute incubation at 22° C., the reaction was measured using a PerkinElmer EnVision multimode plate reader via TR-FRET dual wavelength detection, and the percent of control (POC) was calculated using a ratiometric emission factor. […] The POC values are fit to a 4 parameter logistic curve and the IC50 value is point where the curve crosses 50 POC.

human MET kinase Y1230S = molecular target: T4, human MET kinase Y1230S (Homo sapiens, UniProt P08581, Y1230S); assay: c-Met Enzyme Assay, Y1230S mutant; format: binding; conditions: averaged IC50; Y1230S 8 nM; 60-minute incubation at 22° C.; read-out: Y1230 S IC50
T4 construct: GST-tagged recombinant human MET kinase domain; purchased Signal Chem
Protocol: as §1

T1 sequence (P08581 with tags, fused parts or gaps DEL963-1009 limits assumed): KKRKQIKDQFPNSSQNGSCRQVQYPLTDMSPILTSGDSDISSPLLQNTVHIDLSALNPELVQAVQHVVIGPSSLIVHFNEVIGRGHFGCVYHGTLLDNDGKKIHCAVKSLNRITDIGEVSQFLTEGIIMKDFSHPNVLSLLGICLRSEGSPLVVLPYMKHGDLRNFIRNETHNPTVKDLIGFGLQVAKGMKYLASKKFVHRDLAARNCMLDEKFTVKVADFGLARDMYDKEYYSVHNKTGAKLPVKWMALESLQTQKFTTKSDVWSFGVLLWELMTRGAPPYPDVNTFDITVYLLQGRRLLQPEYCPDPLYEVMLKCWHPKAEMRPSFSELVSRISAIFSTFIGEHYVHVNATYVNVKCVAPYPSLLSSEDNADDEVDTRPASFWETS
T4 sequence (P08581 1078-1345 Y1230S): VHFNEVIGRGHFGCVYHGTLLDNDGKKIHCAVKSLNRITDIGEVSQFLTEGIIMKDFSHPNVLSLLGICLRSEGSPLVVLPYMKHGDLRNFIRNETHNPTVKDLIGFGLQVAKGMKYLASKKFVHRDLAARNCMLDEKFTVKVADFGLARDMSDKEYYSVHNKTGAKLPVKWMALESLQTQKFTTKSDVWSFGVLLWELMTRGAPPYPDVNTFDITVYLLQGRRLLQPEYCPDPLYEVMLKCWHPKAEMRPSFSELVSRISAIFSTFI
T2 sequence (P08581 1078-1345 D1228N): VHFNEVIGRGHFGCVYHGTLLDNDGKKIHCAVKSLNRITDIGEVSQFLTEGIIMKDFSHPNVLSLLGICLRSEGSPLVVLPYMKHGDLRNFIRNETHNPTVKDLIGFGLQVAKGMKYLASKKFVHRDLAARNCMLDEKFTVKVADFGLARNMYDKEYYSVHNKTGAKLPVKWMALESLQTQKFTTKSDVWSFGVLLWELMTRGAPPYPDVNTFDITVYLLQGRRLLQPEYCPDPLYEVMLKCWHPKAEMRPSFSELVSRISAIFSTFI

Row | Structure (SMILES) | IC50 [1] [nM] | IC50 (human MET kinase D1228N) [nM] | IC50 [2] [nM] | IC50 (human MET kinase Y1230S) [nM]
1 | COc1cc2nccc(Oc3ccc(NC(=O)c4cn(C(C)C)cc(-c5ccc(F)c(Cl)c5)c4=O)nc3)c2cc1OC [Example 21, 5-(3-chloro-4-fluorophenyl)-N-(5-((6,7-dimethoxyquinolin-4-yl)oxy)pyridin-2-yl)-1-isopropyl-4-oxo-1,4-dihydropyridine-3-carboxamide] | 13.6 | 31 | 10 | 29.2
2 | COc1cc2nccc(Oc3ccc(NC(=O)c4cn(CC(=O)N(C)C)cc(-c5ccc(F)c(F)c5)c4=O)nc3)c2cc1OC [Example 24, 5-(3,4-difluorophenyl)-N-(5-((6,7-dimethoxyquinolin-4-yl)oxy)pyridin-2-yl)-1-(2-(dimethylamino)-2-oxoethyl)-4-oxo-1,4-dihydropyridine-3-carboxamide] | 10.5 | 36.7 | 1 | 16.5
3 | COc1cc2nccc(Oc3ccc(NC(=O)c4cn(CC(=O)N(C)C)cc(-c5ccc(Cl)cc5)c4=O)nc3)c2cc1OC [Example 25] | 9.5 | 37.8 | 2 | 8
4 | COc1ccc(-c2cn(C(C)C)cc(C(=O)Nc3ccc(Oc4ccnc5cc(OC)c(OC)cc45)cn3)c2=O)cc1 [Example 30, N-(5-((6,7-dimethoxyquinolin-4yl)oxy)pyridin-2-yl)-1-isopropyl-5-(4-methoxyphenyl)-4-oxo-1,4-dihydropyridine-3-carboxamide] | 50.3 | 100 | 2 | 89.2
5 | COc1ccc(-c2cn(C(C)C)cc(C(=O)Nc3ccc(Oc4ccnc5cc(OC)c(OC)cc45)cn3)c2=O)c(F)c1 [Example 31, N-(5-((6,7-dimethoxyquinolin-4yl)oxy)pyridin-2-yl)-5-(2-fluoro-4-methoxyphenyl)-1-isopropyl-4-oxo-1,4-dihydropyridine-3-carboxamide] | 44.7 | 62.7 | 1 | 72.1
6 | COc1cc2nccc(Oc3ccc(NC(=O)c4cn(CCC(C)C)cc(-c5ccc(F)cc5)c4=O)nc3)c2cc1OC [Example 34, N-(5-((6,7-dimethoxyquinolin-4yl)oxy)pyridin-2-yl)-5-(4-fluorophenyl)-1-isopentyl-4-oxo-1,4-dihydropyridine-3-carboxamide] | 5.7 | 7.2 | 2 | 4.1
7 | COc1cc2nccc(Oc3ccc(NC(=O)c4cn(CCC(C)C)cc(-c5ccc(F)c(F)c5)c4=O)nc3)c2cc1OC [Example 35, 5-(3,4-difluorophenyl)-N-(5-((6,7-dimethoxyquinolin-4yl)oxy)pyridin-2-yl)-1-isopentyl-4-oxo-1,4-dihydropyridine-3-carboxamide] | 14 | 16.2 | 6 | 8.5
8 | COc1cc2nccc(Oc3ccc(NC(=O)c4cn(CCC(C)C)cc(-c5ccc(Cl)cc5)c4=O)nc3)c2cc1OC [Example 37] | 12.2 | 16.8 | 5 | 10.2

Now those with a lower IC50 [1], led by results:

Row | IC50 [1] [nM] | IC50 (human MET kinase D1228N) [nM] | IC50 [2] [nM] | IC50 (human MET kinase Y1230S) [nM] | Structure (SMILES)
9 | 5.2 | 19.2 | 7 | 9.1 | COc1cc2nccc(Oc3ccc(NC(=O)c4c[nH]cc(-c5ccc(F)cc5)c4=O)nc3)c2cc1OC [Example 26, N-(5-((6,7-dimethoxyquinolin-4yl)oxy)pyridin-2-yl)-5-(4-fluorophenyl)-4-oxo-1,4-dihydropyridine-3-carboxamide]
10 | 4.9 | 13.3 | 1 | 5 | COc1ccc2nccc(Oc3ccc(NC(=O)c4cn(C(C)C)c(C)c(-c5ccc(F)cc5)c4=O)nc3)c2c1 [Example 33, 5-(4-fluorophenyl)-1-isopropyl-N-(5-((6-methoxyquinolin-4-yl)oxy)pyridin-2-yl)-6-methyl-4-oxo-1,4-dihydropyridine-3-carboxamide]
11 | 3.8 | 10.4 | 3 | 6.2 | COc1cc(-c2cn(C(C)C)cc(C(=O)Nc3ccc(Oc4ccnc5cc(OC)c(OC)cc45)cn3)c2=O)ccc1F [Example 20, N-(5-((6,7-dimethoxyquinolin-4yl)oxy)pyridin-2-yl)-5-(4-fluoro-3-methoxyphenyl)-1-isopropyl-4-oxo-1,4-dihydropyridine-3-carboxamide]
12 | 3.2 | 17.4 | 2 | 7.1 | COc1cc2nccc(Oc3ccc(NC(=O)c4cn(C(C)C)cc(-c5ccc(F)cc5OC)c4=O)nc3)c2cc1OC [Example 32, N-(5-((6,7-dimethoxyquinolin-4yl)oxy)pyridin-2-yl)-5-(4-fluoro-2-methoxyphenyl)-1-isopropyl-4-oxo-1,4-dihydropyridine-3-carboxamide]
13 | 3.1 | 6.5 | 2 | 2.2 | CNC(=O)Cn1cc(C(=O)Nc2ccc(Oc3ccnc4cc(OC)c(OC)cc34)cn2)c(=O)c(-c2ccc(F)cc2)c1 [Example 22]
14 | 2.9 | 13.5 | 1 | 3.8 | COc1cc2nccc(Oc3ccc(NC(=O)c4cn(CC(=O)N(C)C)cc(-c5ccc(F)cc5)c4=O)nc3)c2cc1OC [Example 23, N-(5-((6,7-dimethoxyquinolin-4yl)oxy)pyridin-2-yl)-1-(2-(dimethylamino)-2-oxoethyl)-5-(4-fluorophenyl)-4-oxo-1,4-dihydropyridine-3-carboxamide]
15 | 2.5 | 3.1 | 1 | 1.5 | CCc1c(-c2ccc(F)cc2)c(=O)c(C(=O)Nc2ccc(Oc3ccnc4cc(OC)c(OC)cc34)cn2)cn1C(C)C [Example 29, N-(5-((6,7-dimethoxyquinolin-4yl)oxy)pyridin-2-yl)-6-ethyl-5-(4-fluorophenyl)-1-isopropyl-4-oxo-1,4-dihydropyridine-3-carboxamide]
16 | 2.4 | 4.8 | 3 | 2.3 | COc1cc2nccc(Oc3ccc(NC(=O)c4cn(CCC(C)C)cc(-c5ccc(F)cc5F)c4=O)nc3)c2cc1OC [Example 36, 5-(2,4-difluorophenyl)-N-(5-((6,7-dimethoxyquinolin-4yl)oxy)pyridin-2-yl)-1-isopentyl-4-oxo-1,4-dihydropyridine-3-carboxamide]
17 | 1.9 | 3.6 | 2 | 1.8 | COc1cc2nccc(Oc3ccc(NC(=O)c4cn(C(C)C)cc(-c5ccc(F)cc5C)c4=O)nc3)c2cc1OC [Example 19, N-(5-((6,7-dimethoxyquinolin-4yl)oxy)pyridin-2-yl)-5-(4-fluoro-2-methylphenyl)-1-isopropyl-4-oxo-1,4-dihydropyridine-3-carboxamide]
18 | 1.9 | 3.6 | 1 | 1.8 | COc1cc2nccc(Oc3ccc(NC(=O)c4cn(C(C)C)c(C)c(-c5ccc(F)c(F)c5)c4=O)nc3)c2cc1OC [Example 28, 5-(3,4-difluorophenyl)-N-(5-((6,7-dimethoxyquinolin-4yl)oxy)pyridin-2-yl)-1-isopropyl-6-methyl-4-oxo-1,4-dihydropyridine-3-carboxamide]
19 | 1.1 | 2 | 1 | 1.1 | COc1cc2nccc(Oc3ccc(NC(=O)c4cn(C(C)C)c(C)c(-c5ccc(F)cc5)c4=O)nc3)c2cc1OC [Example 27, N-(5-((6,7-dimethoxyquinolin-4yl)oxy)pyridin-2-yl)-5-(4-fluorophenyl)-1-isopropyl-6-methyl-4-oxo-1,4-dihydropyridine-3-carboxamide]
